IC50 and inhibition data for 3 compounds are collected here from ChEMBL document CHEMBL1150148, “Isolation and structure elucidation of an isoflavone and a sesterterpenoic acid from Henriettella fascicularis” (J Nat Prod, 2002).

Bounds are passed on as bounds.

The test system of assay [1] is Ishikawa. Description: Antiestrogenic activity in human Ishikawa cells assessed as inhibition of estradiol-induced induction of alkaline phosphatase activity after 4 days by para-nitrophenol release assay. It counts as functional, cell-based. The following applies: 96 h.
The target of assay [2] is T1, Estrogen receptor (Homo sapiens, UniProt P03372).
T1 sequence (P03372 whole entry): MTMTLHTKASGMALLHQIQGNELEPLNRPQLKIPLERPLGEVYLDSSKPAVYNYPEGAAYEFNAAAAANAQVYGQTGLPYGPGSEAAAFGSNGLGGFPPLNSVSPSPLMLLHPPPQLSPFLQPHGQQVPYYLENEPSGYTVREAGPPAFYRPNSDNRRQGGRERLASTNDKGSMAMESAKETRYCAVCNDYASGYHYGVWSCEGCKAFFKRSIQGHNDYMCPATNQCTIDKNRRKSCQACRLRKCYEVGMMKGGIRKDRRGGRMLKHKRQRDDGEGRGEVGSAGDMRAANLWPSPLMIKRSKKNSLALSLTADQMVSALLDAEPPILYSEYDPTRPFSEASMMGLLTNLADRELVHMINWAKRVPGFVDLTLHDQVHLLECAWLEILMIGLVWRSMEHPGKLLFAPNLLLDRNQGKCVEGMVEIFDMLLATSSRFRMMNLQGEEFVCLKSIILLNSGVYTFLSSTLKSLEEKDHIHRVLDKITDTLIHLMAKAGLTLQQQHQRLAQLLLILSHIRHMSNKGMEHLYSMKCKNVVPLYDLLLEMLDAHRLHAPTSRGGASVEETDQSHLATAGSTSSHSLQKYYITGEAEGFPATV

The test system of assay [3] is Ishikawa. Description: Estrogenic activity in human Ishikawa cells assessed as induction of alkaline phosphatase activity after 4 days by para-nitrophenol release assay. The following applies: 96 h. It counts as functional, cell-based.
Assay [4] concerns the target Estrogen receptor beta (Homo sapiens, UniProt Q92731).
Description: Displacement of [3H]estradiol from human recombinant ERbeta
Assay [5] has as its system Ishikawa. Description: Antiestrogenic activity in human Ishikawa cells assessed as inhibition of estradiol-induced induction of alkaline phosphatase activity at 20 uM after 4 days by para-nitrophenol release assay. It counts as functional. The conditions noted are these: 96 h.

Sequence of Estrogen receptor beta (Q92731 whole entry): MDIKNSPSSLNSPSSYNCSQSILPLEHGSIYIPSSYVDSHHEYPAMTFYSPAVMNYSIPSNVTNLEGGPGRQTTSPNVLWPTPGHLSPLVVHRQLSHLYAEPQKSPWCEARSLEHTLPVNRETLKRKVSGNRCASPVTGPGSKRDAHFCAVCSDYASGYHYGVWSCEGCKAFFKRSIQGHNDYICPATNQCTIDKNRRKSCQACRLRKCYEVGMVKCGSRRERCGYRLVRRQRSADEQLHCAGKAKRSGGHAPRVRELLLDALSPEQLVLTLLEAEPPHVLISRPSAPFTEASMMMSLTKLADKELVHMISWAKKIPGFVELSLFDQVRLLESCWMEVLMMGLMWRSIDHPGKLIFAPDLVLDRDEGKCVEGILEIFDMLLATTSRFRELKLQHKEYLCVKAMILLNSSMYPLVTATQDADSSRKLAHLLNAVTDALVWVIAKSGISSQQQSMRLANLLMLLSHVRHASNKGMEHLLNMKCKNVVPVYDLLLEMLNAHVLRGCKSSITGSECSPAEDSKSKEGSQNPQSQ

For the compound `Cc1c(O)c(C)c2occ(-c3ccc(O)cc3)c(=O)c2c1O`, the IC50 (commonly the concentration needed to halve the response being measured) in assay [1] was 10.5 µM; in assay [2], 10.2 µM; in assay [3], greater than 20 µM; in assay [4], 0.88 µM.

As for `O=c1c(-c2ccc(O)cc2)coc2cc(O)cc(O)c12` [GENISTEIN], the IC50 in assay [3] was determined as 0.51 µM.

`O=c1cc(-c2ccc(O)cc2)oc2cc(O)cc(O)c12` [APIGENIN]: in assay [5], the inhibition (commonly the drop in the measured response relative to a control, in per cent) at 20 µM stood at 25%.
